Measurements as given in patent publication US8906897B2, “Antimicrobial agents based on hemin derivatives” (Obschestvo S Ogranichennoi Otvetstvennostiyu …, priority 2009, dated 2014).

Experiments:
Format in all cases: cell-based
[1] = tested on: Candida albicans No. 927; test: Antifungal activity, culture growth with pH indicator; design: key to Test culture growth at various dilutions of the agent: (−) No growth; the indicator is blue; (±) Weak growth; the indicator is yellow, but the precipitate of grown cells looks as a diffuse spot; (+) Strong growth; the indicator is yellow, and the cell precipitate looks as a compact spot
Procedure, shortened: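 Museum strains grown one day on glucose-peptone-yeast medium at 32° C; compounds two-fold serially diluted (DMSO ≤5% for insoluble ones) in synthetic medium with Bromocresol Blue, ~10^3 CFU/mL. Growth read as blue-to-yellow shift (pH 5.5→4.5) after 1 h at 32° C with stirring, then 27° C: C. neoformans 2 and 5 days, C. albicans 1 and 4 days.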

[2] = tested on: Bacillus subtilis BKM B-501; test: Antibacterial activity (MIC/MBC), serial dilutions in liquid MH medium; conditions: for MIC: 20 h, MH medium
Procedure: (§1) The antibacterial activity of compounds was determined against Bacillus subtilis BKM B-501, Staphylococcus aureus 209P, Enterococcus faecalis BKM B-871, and Micrococcus luteus BKM Ac-2230 strains (acquired from the All-Russia Collection of Microorganisms at the Institute for Biochemistry and Physiology of Microorganisms, Russian Academy of Sciences). The main parameters characterizing the antibacterial activity are the minimal inhibitory concentration (MIC) and minimal bactericidal concentration (MBC). […] MBC is the least concentration that causes the death of all cells.
(§2) MIC was quantified by inhibiting culture growth in a liquid medium with serial dilutions of compounds using a modified procedure [Amsterdam, D., “Susceptibility Testing of Antimicrobials in Liquid Media,” in Antibiotics in Laboratory Medicine, Ed. by Lorian, V., 4th ed., Baltimore: Williams and Wilkins, 1996, pp. 52-111].
(§3) Bacteria were cultured and tests were carried out on an MH liquid medium (Mueller-Hinton medium: a dry extract of beef broth, 4 g/L; starch, 1.5 g/L; casein hydrolyzate, 17.5 g/L; Sigma-Fluka Catalog No. 70192) at 37° C., 100% humidity, and under stirring. Cultures (4th through 7th receeding post-thawing) in the exponential growth phase were used for tests.
(§4) Therefore, a correction for absorption was applied in estimating the optical density of bacterial suspensions for each compound with account for its concentration in the well.
(§5) The protocol for experimental antibacterial activity determination for tested compounds was as follows. A cryovial with the test strain culture (Bacillus subtilis BKIVI B-501, Staphylococcus aureus 209P, Enterococcus faecalis BKM B-871, or Micrococcus luteus BKIVI Ac-2230) in a medium with 7% DMSO stored in liquid nitrogen, was rapidly defrosted, and 1.5 mL of the fresh MH medium was inoculated with 100 μL of the cell suspension. Cells were grown for one day at 37° C. and stirred on an orbital shaker at 150 rpm. The morphologic features of the strain and the absence of contamination with foreign bacteria were verified by: (a) inoculation on an agarized (15 g/L agar) MH medium and observation of the shape and color of the grown colonies and (b) examination of characteristic morphologic features under a microscope (Mikmed-2, LOMO, Russia) equipped with a 40× objective lens. Further bacteria were cultured in 1 mL of the liquid MH medium at 37° C. under stirring. The cells were reseeded every day. Cell cultures were used in tests starting with 3rd reseeding and ending with 6th one.
(§6) For testing, 5 μL of a bacterial suspension in the stationary growth phase was transferred to 1 mL of a sterile MH medium and incubated until the exponential growth phase was attained (3 to 5 h, 37° C., stirring at 150 rpm). To estimate the microorganisms concentration, the optical density (A) of the resulting bacterial culture was measured at a wavelength of 595 nm. The value of A=0.2 measured from a […] portion of the cell suspension in a 96-well plate, with a correction for the medium absorption applied, was set to correspond to 4×10^8 cells/mL for both strains used. Taking into account the cell concentration measurements, the suspension was diluted with the MH medium to a concentration of from 5×10^4 to 1×10^5 cells/mL and transferred to a sterile 96-well plate in an amount of 100 μL, per well. Then, the cells were added with tested compounds and twofold serial dilutions of these compounds in plate's wells were made.
(§7) The controls used were: 100 μL of an additive-free bacterial culture (four wells); a bacterial culture added with 1% DMSO or water in the same volume as in the wells with the maximal concentration of the tested compounds (four wells); and 100 μL of the sterile MH medium without bacteria and without tested compounds for control of occasional contamination in the plate (four wells).

[3] = tested on: Enterococcus faecalis BKM B-871; test: as above; conditions: for MIC: 20 h, MH medium
Procedure: as §1, §2, §3, §4, §5, §6, §7

[4] = tested on: Staphylococcus aureus 209P; test: as above; conditions: for MIC: 20 h, MH medium
Procedure: as §1, §2, §3, §4, §5, §6, §7

[5] = tested on: Micrococcus luteus BKM Ac-2230; test: as above; conditions: for MIC: 20 h, MH medium
Procedure: as §1, §2, §3, §4, §5, §6, §7

Compound | concentration with practically fungicidal effect ([1]; control inoculations from wells on day 1 to 4 post-exposure) | Test culture growth at various dilutions of the agent ([1]; dilution 0: 1 × 10^−4 M) | Test culture growth at various dilutions of the agent ([1]; dilution : 2 of 1 × 10^−4 M) | Test culture growth at various dilutions of the agent ([1]; dilution : 4 of 1 × 10^−4 M) | Test culture growth at various dilutions of the agent ([1]; dilution : 8 of 1 × 10^−4 M) | Test culture growth at various dilutions of the agent ([1]; dilution : 16 of 1 × 10^−4 M) | Test culture growth at various dilutions of the agent ([1]; dilution : 32 of 1 × 10^−4 M) | Test culture growth at various dilutions of the agent ([1]; dilution : 64 of 1 × 10^−4 M) | MBC [2] | MBC [3] | MIC [3] [µM] | MBC [4] | MBC [5] [µM] | MIC [5] [µM] | MIC [2] [µM] | MIC [4] [µM]
C=CC1=C(C)c2cc3[n-]c(cc4nc(cc5[n-]c(cc1n2)c(C)c5CCC(=O)N[C@@H](CCC(=O)N[C@@H](CCCNC(=N)N)C(=O)OC)C(=O)N[C@@H](CCCNC(=N)N)C(=O)OC)C(CCC(=O)N[C@@H](CCC(=O)N[C@@H](CCCNC(=N)N)C(=O)OC)C(=O)N[C@@H](CCCNC(=N)N)C(=O)OC)=C4C)c(C)c3C=C.[Cl-].[Fe+3] [Compound XVIII, 6,7-bis[bis(N^α-L-Arginyl Methyl Ester)-L-Glutamyl]-Protohemin IX] | about 5×10^−5 M | − | − | − | ± | ± | ± | ± | Not reached | >50^3 μM | 12.5 | >50^2 μM | 12.5 | 3.1 |  | 
C=CC1=C(C)c2cc3[n-]c(cc4nc(cc5[n-]c(cc1n2)c(C)c5CCC(=O)N[C@@H](CO)C(=O)OC)C(CCC(=O)N[C@@H](CO)C(=O)OC)=C4C)c(C)c3C=C.[Cl-].[Fe+3] [VIII] |  | ± | ± | ± | + | + | + | + | 9 ± 4 µM | 25 µM | 12.5 | 200 µM | 12.5 |  | 6.3 ± 1.6 | 
C=CC1=C(C)c2cc3[n-]c(cc4[n-]c(cc5nc(cc1n2)C(C)=C5C=C)c(C)c4CCC(=O)O)c(CCC(=O)O)c3C.[Cl-].[Fe+3] [Hem, hemin] |  | ± | + | + | + | + | + | + | 50 ± 13 µM | >1000 µM | 1000 | 200 µM | 25 | 12.5 | 13 ± 4 | 100
C=CC1=C(C)c2cc3[n-]c(cc4nc(cc5[n-]c(cc1n2)c(C)c5CCC(=O)NCCO)C(CCC(=O)NCCO)=C4C)c(C)c3C=C.[Cl-].[Fe+3] [Compound XIV, Protohemin IX 6,7-bis-N-(2-Hydroxyethyl)amide] |  | ± | + | + | + | + | + | + | 6.3 ± 1.6 µM | 100 µM | 25 | 3.2 µM | 1.6 | 0.8 | 1.6 ± 0.4 | 1.6
C=CC1=C(C)c2cc3[n-]c(cc4nc(cc5[n-]c(cc1n2)c(C)c5CCC(=O)N[C@@H](CCCNC(=N)N)C(=O)OC)C(CCC(=O)N[C@@H](CCCNC(=N)N)C(=O)OC)=C4C)c(C)c3C=C.[Cl-].[Fe+3] [VII] |  | ± | + | + | + | + | + | + | 3.1 ± 0.8 µM | 400 µM | 50 | 200 µM | 6.3 |  |  | 
